Values of other authors in patent US6362169B1 (priority 1998, dated 2002).

Tested on: Helicobacter pylori
Conditions: combination use with a proton pump inhibitor or a bismuth preparation (WO 97/02039)

Compound: CO[C@H]1/C=C/O[C@@]2(C)Oc3c(C)c(O)c4c(c3C2=O)C2=NC3(CCN(CC(C)C)CC3)NC2=C(NC(=O)/C(C)=C\C=C\[C@H](C)[C@H](O)[C@@H](C)[C@@H](O)[C@@H](C)[C@H](OC(C)=O)[C@@H]1C)C4=O [Rifabutin, rifabutin]
- effect on minimum inhibitory concentration by combination use: synergistic effect
